# Assay results published in paper PMC10065799, “High-throughput profiling of sequence recognition by tyrosine kinases and SH2 domains using bacterial peptide display” (eLife, 2023).
# Square brackets hold non-standard residues; d marks the D form. pY = N[C@@H](Cc1ccc(OP(=O)(O)O)cc1)C(=O)O
# Columns and labels:
# Experiment in all cases: pTyr-Var library bacterial peptide display kinase screen (enrichment scores)
# Fer kinase domain = assay type: biochemical, mouse; settings: sheet "Fer"
# c-Src kinase domain = c-Src kinase domain (Homo sapiens, UniProt P12931); assay type: biochemical; settings: sheet "Src";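 also: log2 fold change in enrichment of variant over reference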
# c-Abl kinase domain = biological target: T1, c-Abl kinase domain (Mus musculus, UniProt P00520); assay type: biochemical;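 also: log2 fold change in enrichment of variant over reference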
# T1 sequence (P00520 242-493 limits assumed): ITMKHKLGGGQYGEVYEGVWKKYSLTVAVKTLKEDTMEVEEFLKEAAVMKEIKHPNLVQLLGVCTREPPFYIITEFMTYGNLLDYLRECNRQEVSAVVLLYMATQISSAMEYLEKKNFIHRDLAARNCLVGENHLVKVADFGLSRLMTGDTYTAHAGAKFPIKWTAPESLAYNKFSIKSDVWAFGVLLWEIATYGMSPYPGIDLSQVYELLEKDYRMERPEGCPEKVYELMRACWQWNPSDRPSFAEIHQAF
# EPHB1 kinase domain = assay type: biochemical, human; settings: for Screen (variant relative to reference peptide, measured in the pTyr-Var library screen): sheet "EPHB1", variant seq vs reference seq, bacterial peptide display enrichment; for Screen: sheet EPHB1, effect of the variant peptide relative to its reference peptide in the pTyr-Var library screen (enrichment scores)
# [1] = variant peptide relative to its reference peptide, pTyr-Var library screen enrichment
# [2] = variant peptide versus its reference peptide in the pTyr-Var library screen
# [3] = fig5-data2, sheet "Abl", Screen for the variant/reference peptide pair, pTyr-Var library
# [4] = value of the variant peptide against its reference peptide in the pTyr-Var library screen with Fer
# [5] = sheet "Abl", effect of variant peptide relative to its reference peptide in pTyr-Var library screen (enrichment)
# [6] = effect of the variant peptide relative to its reference peptide in the pTyr-Var library screen
substance,measurement,setting,value
ACCLLYHGDVV [TUBA4A_Y319_R320H],Screen,Fer kinase domain; [1],1.239
same,Screen,c-Src kinase domain; [2],-0.1128
AGQEGYDRLRP [RAC1_Y64_D63G],Screen,c-Abl kinase domain; [3],-0.6801
ALPGEYIPTVF [RAC1_Y32_F28L],Screen,c-Abl kinase domain; [3],-1.258
APAHKYHGGGG [HBD_Y146_L142P],Screen,c-Abl kinase domain; [3],0.5925
ARVANYHRDGP [CAT_Y386_Q387H],Screen,c-Abl kinase domain; [3],0.869
AVEDQYFRVDC [FHL1_Y207_C209R_YF],Screen,c-Abl kinase domain; [3],-2.172
Ac-QSLEKS[pY]ELLDGG-NH2 [ACTB_Y240_P243L],Screen,c-Abl kinase domain; [3],-1.856
CLGNQYVNVMN [SLC3A1_Y461_R456C],"Screen (variant relative to reference peptide, measured in the pTyr-Var library screen)",EPHB1 kinase domain,-0.4562
DDEVFYSPLSL [OTC_Y317_R320L],Screen,Fer kinase domain; [4],2.858
same,Screen,c-Src kinase domain; [2],2.664
DLAHKYHGGGG [HBB_Y146_A141D],Screen,c-Abl kinase domain; [3],-0.5192
DLGIQYKVLKP [CTNNA1_Y177_A179V],Screen,c-Abl kinase domain; [3],0.1591
DLSEVYKPCRK [CCDC93_Y176_R179C],Screen,c-Abl kinase domain; [3],0.05093
DNLSNYVFQGQ [GRIN2A_Y978_N976S],Screen,EPHB1 kinase domain,0.2649
DTLLEYLENPK [CYCS_Y68_M66L],Screen,c-Abl kinase domain; [3],-1.313
DWQQEYVLNES [TGM1_Y267_R264Q],Screen,c-Src kinase domain; [2],1.018
DWRQEYVLNEP [TGM1_Y267_S272P],Screen,c-Src kinase domain; [2],0.4859
EDKFMYSEFPQ [PTEN_Y240_F241S],Screen,c-Src kinase domain; [2],0.2043
EGNEQYEGFCV [GRIA3_Y451_R450Q_YF],Screen,Fer kinase domain; [4],2.326
EKQLLYLENKT [FRK_Y132_S133L],Screen,c-Abl kinase domain; [3],1.576
ENFSEYQEISV [HEMGN_Y150_A154S],Screen,EPHB1 kinase domain,0.04896
same,Screen,c-Abl kinase domain; [3],0.8508
ESMQSYDLDFP [UNC13B_Y243_D238E_YF],Screen,c-Abl kinase domain; [5],0.2086
ETCLAYMEKRI [TEKT1_Y118_R119M],Screen,c-Abl kinase domain; [5],-0.666
ETELPYQELQG [TYROBP_Y91_S89L],Screen,c-Src kinase domain; [2],0.7128
FDNSVYQKTTE [LDLR_Y828_P826S],Screen,c-Abl kinase domain; [3],1.184
FNDSAYNQQLI [ZPLD1_Y198_T197A_YF],Screen,c-Abl kinase domain; [5],1.136
FRTGHYLCNAC [GATA1_Y223_D218Y_YF],Screen,c-Abl kinase domain; [3],1.235
GDAMLYFPSVS [GPR143_Y177_A173D_YF],Screen,c-Abl kinase domain; [3],0.9829
GHLFAYNWISI [BEST1_Y227_D228N_YF],Screen,Fer kinase domain; [4],-1.638
GNLLIYTKFGK [HGD_Y166_E168K],Screen,EPHB1 kinase domain,-0.9666
same,Screen,c-Abl kinase domain; [3],0.592
same,Screen,c-Src kinase domain; [6],-1.556
GPQSLYNGLVA [UCP2_Y79_R76Q],Screen,c-Src kinase domain; [2],1.82
GRSTFYWPSPR [GAGE12J_Y10_R13S_YF],Screen,c-Abl kinase domain; [3],-1.338
GRTGHYLCNAC [GATA1_Y223_D218G],Screen,c-Abl kinase domain; [3],0.2005
GVLDIYGFDIL [MYO1A_Y382_E385D],Screen,c-Src kinase domain; [2],0.6089
HNELFYEAAEH [VANGL1_Y345_E347A_YF],Screen,Fer kinase domain; [1],1.287
same,Screen,c-Src kinase domain; [2],1.947
KACKHYLTKRT [ZBTB5_Y118_T121K],Screen,c-Abl kinase domain; [5],-3.546
KFFRVYQGQQP [MUTYH_Y494_V490F],Screen,c-Abl kinase domain; [3],-1.003
KGNMFYENSFA [EGFR_Y113_R108K_YF],Screen,Fer kinase domain; [4],-0.4996
KKFPDYIQIAR [SGMS2_Y59_M64R_YF],"Screen (variant relative to reference peptide, measured in the pTyr-Var library screen)",EPHB1 kinase domain,-0.1665
same,Screen,c-Abl kinase domain; [5],1.322
KLADIYQAELR [GFAP_Y116_V115I],Screen,c-Src kinase domain; [6],1.355
KLPDAYEPLIL [G6PD_Y437_R439P],Screen,Fer kinase domain; [4],1.978
KNSSIYVVANI [VNN1_Y134_N131S],Screen,c-Abl kinase domain; [5],4.539
KPGLIYNKVNP [SPRED3_Y72_V71I],Screen,c-Abl kinase domain; [5],-0.1763
KSVEEYANCHL [TF_Y593_P589S],Screen,c-Abl kinase domain; [5],0.8616
LESETYRRLLD [KRT12_Y429_I426S],Screen,c-Abl kinase domain; [3],-1.592
LGNIVYSSLCG [BCOR_Y90_P85L],Screen,Fer kinase domain; [4],0.7069
same,Screen,c-Src kinase domain; [6],0.02175
LIFTNYEVGKD [GSTP1_Y112_A114V_YF],Screen,EPHB1 kinase domain,1.043
LITTLYSGFLG [KCNQ1_Y267_I268S],Screen,c-Src kinase domain; [6],0.982
LNECHYGALIG [BPGM_Y92_R90C],Screen,c-Src kinase domain; [6],2.509
LNPLFYSLRNK [OR5R1_Y290_I289F],Screen,EPHB1 kinase domain,-2.165
same,Screen,c-Src kinase domain; [2],-4.245
LNPLVYTLRNA [OR4C12_Y285_V283L],Screen,c-Src kinase domain; [2],0.901
LTDLRYKVSGP [TTN_Y22641_L22646P],Screen,c-Abl kinase domain; [5],-1.764
LTMAPYSSVSV [FAM81A_Y24_L29V],Screen,Fer kinase domain; [4],0.5529
MKGEFYRFLAE [YWHAG_Y131_D129E_YF],Screen,c-Abl kinase domain; [5],2.42
MSRDVYSTDCF [NTRK2_Y702_Y706C_YF],Screen,c-Src kinase domain; [2],-0.1963
NDQANYLLNTD [ADA_Y290_S291L],Screen,c-Abl kinase domain; [3],-1.65
NSFKFYMSDDI [ATRX_Y204_C200S_YF],Screen,c-Abl kinase domain; [3],1.883
PFTDPYFDFEI [ZC3H18_Y371_A368T_YF],Screen,c-Src kinase domain; [2],0.4384
PLDGEYFSLQI [TP53_Y327_T329S],Screen,c-Src kinase domain; [2],0.4244
PLDGEYFTHQI [TP53_Y327_L330H],Screen,c-Src kinase domain; [2],-1.246
PLDGEYFTLQV [TP53_Y327_I332V],"Screen (variant relative to reference peptide, measured in the pTyr-Var library screen)",EPHB1 kinase domain,-0.1216
same,Screen,c-Src kinase domain; [2],-0.8668
PMQMPYDSRWE [PDGFRA_Y582_L580M],Screen,c-Abl kinase domain; [3],0.7733
PNKAVYTKMMT [G6PD_Y401_E398K],Screen,Fer kinase domain; [4],-3.207
same,Screen,c-Src kinase domain; [6],-2.964
PNRILYGDFWQ [MYH7_Y715_R719W],Screen,c-Src kinase domain; [2],-0.3786
PQGVSYIFTID [DCX_Y103_R102S_YF],Screen,c-Abl kinase domain; [3],-1.987
PRNLIYFGEHP [TRPV6_Y201_C197R],Screen,c-Src kinase domain; [2],-3.508
PVQAAYQKLVA [HBB_Y131_V134L],Screen,c-Abl kinase domain; [3],-1.01
QKPLGYFRVNL [GALE_Y104_D103G_YF],Screen,c-Abl kinase domain; [3],-1.351
QMVRMYASSFM [AVPR2_Y124_G122R_YF],Screen,c-Src kinase domain; [6],-2.32
REGAKYVSHDA [ASS1_Y113_G117D],Screen,c-Abl kinase domain; [3],1.12
RNLLIYTEFGK [HGD_Y166_G161R],Screen,EPHB1 kinase domain,0.6934
same,Screen,c-Src kinase domain; [6],-0.2684
RREWFYEVIIA [BACE1_Y260_V265A_YF],Screen,Fer kinase domain; [4],-1.406
RRIHSYRGRLW [VHL_Y112_H115R],"Screen (variant relative to reference peptide, measured in the pTyr-Var library screen)",EPHB1 kinase domain,-0.8094
same,Screen,c-Src kinase domain; [2],-2.396
RRNEIYEIKVD [LGR5_Y387_H383R],Screen,c-Src kinase domain; [6],-0.9028
SDPIIYTLENV [ADGRE1_Y534_I539V],Screen,Fer kinase domain; [4],-0.559
same,Screen,c-Src kinase domain; [6],-0.05563
SHSMRYFSTAV [HLA-C_Y31_D33S],Screen,c-Abl kinase domain; [3],0.4242
SLMNQYVNKEF [RAB7A_Y28_K32E],Screen,c-Abl kinase domain; [3],1.901
SNKLTYGTVVF [ACOX1_Y275_M278V],Screen,c-Src kinase domain; [6],0.3111
SSQTIYQRVEG [TFR2_Y23_V22I],"Screen (variant relative to reference peptide, measured in the pTyr-Var library screen)",EPHB1 kinase domain,1.306
same,Screen,c-Src kinase domain; [2],1.445
TDHLQYFDSNK [ARAP1_Y359_R358Q],Screen,c-Abl kinase domain; [3],1.336
TFGNLYGSRKQ [YIPF7_Y59_A54T_YF],Screen,c-Abl kinase domain; [5],-3.299
same,Screen,c-Src kinase domain; [2],0.7296
TLLPDYEDEEE [ZNF830_Y159_S154T],Screen,c-Abl kinase domain; [5],2.994
TTKGAYSLSVR [YES1_Y194_I198V],Screen,c-Abl kinase domain; [5],2.19
TVLWLYTGTRP [UGT1A1_Y337_R336L],Screen,c-Abl kinase domain; [5],0.619
TVLWQYTGTRP [UGT1A1_Y337_R336Q],Screen,c-Abl kinase domain; [5],0.7115
VASMFYTLVIP [OR8K3_Y277_I275M],Screen,Fer kinase domain; [4],0.3514
VCHELYNAIRD [PBRM1_Y54_T56A],Screen,c-Abl kinase domain; [3],-0.5103
VFFDLYGGEKF [PTPN11_Y66_D61V_YF],Screen,c-Src kinase domain; [2],-0.4607
VHKKGYNKLNQ [ZNF676_Y98_E96K],Screen,c-Abl kinase domain; [5],1.586
VLALWYFFLTN [ZDHHC23_Y127_H132N_YF],Screen,c-Abl kinase domain; [5],-3.327
VMAALYGRLFE [BTD_Y536_T532M_YF],Screen,c-Abl kinase domain; [3],-0.5848
same,Screen,c-Src kinase domain; [6],0.294
VMLENYSNLLS [ZFP69_Y109_V113L],"Screen (variant relative to reference peptide, measured in the pTyr-Var library screen)",EPHB1 kinase domain,0.4122
WCSNDYLGMSQ [ALAS2_Y199_R204Q],Screen,EPHB1 kinase domain,0.6712
